# Like-named read-outs stand apart in the source and are kept apart here.
# Experiments:
# [1] = Plasma pharmacokinetics, naïve pooled non-compartmental analysis (days 0 and 28); type: in vivo, human; set-up: AUClast / AUC(0-t) / AUCINF / AUC(0-inf): concentration or dose not given beside the values; conditions: for drug accumulation: between day 0 and 28; for AUC(0-t) / AUClast: to 8 hours for SOF, 24 hours for GS-331007 and DCV; for half-life: read-out: t1/2, terminal elimination half-life (converted); for AUC(0-inf): po; for AUC(0-inf) / AUCINF: extrapolated to infinity
# Description: (§1) In addition, intensive drug level sampling was conducted in a subset of 40 participants, who were sequentially invited to join an ancillary PK study. In this subgroup, five samples were collected in each participant after the first dose of SOF/DCV and at day 28, according to one of two randomly assigned sampling schedules (A and B). In sampling schedule A, drug levels were measured at 0.5-, 2-, 4-, 6- and 24-hr post-dose; in sampling schedule B, drug levels were measured at 1-, 3-, 5-, 8- and 24-hr post-dose.
# (§2) Drug quantification was performed using liquid chromatography-tandem mass spectrometer at Mahidol Oxford Tropical Medicine Research Unit, Bangkok. Two separate analytical assays were developed and validated to quantify SOF plus its metabolite GS-331007, and DCV, respectively. Full methodological details of the PK/PD analysis are provided in Appendix 1.
# Intensive drug levels of SOF, its metabolite GS-331007, and DCV from the subset of 40 patients at days 0 and 28, together with any EOT samples at day 28, were analysed using non-compartmental analysis in PKanalix version 2020R1 ([Lixoft, 2022]). Two separate analyses were performed to characterise the pharmacokinetic properties of the study drugs.
# In the first, naïve pooled analyses were performed separately on data from days 0 and 28 (not including EOT samples) to derive median pharmacokinetic parameters at each day. In these analyses, the median concentration at each protocol time was calculated. Individual concentration measurements below the LLOQ were set to LLOQ/2 when calculating the median values. It was assumed that the participants had no drug concentrations at time 0.
# Sofosbuvir and GS-331007 were extracted from 100 µL of plasma using phospholipid removal in the 96-well plate format (Phree, 8E-S133-TGB, Phenomenex), followed by separation on a Gemini, 50 mm × 2.0 mm I.D. 5 µm, column (00B-4435-B0, Phenomenex). Quantification was performed using selected reaction monitoring for the transitions m/z 530.2–>243.2 (sofosbuvir), 536.2–>243.1 (isotope-labelled internal standard for sofosbuvir), 261.3–>113.1 (GS-331007), and 265.3–>113.1 (isotope-labelled internal standard for GS-331007).
# The lower limit of quantification (LLOQ) was set to 1.95 ng/mL for sofosbuvir and 20.5 ng/mL for GS-331007. A total of 9 quality control samples (3×low, 3×mid and 3×high concentration) were analysed for each analyte within each batch of clinical samples (96-well plate), resulting in an accuracy of 2.81–2.93% RSE for sofosbuvir and 2.19–3.50% RSE for GS-331007.
# DCV was extracted from 100 µL of plasma using supported liquid extraction in the 96-well plate format (ISOLUTE SLE +96 well plate, 820–0200 P01, Biotage), followed by separation on a Gemini, 50 mm × 2.0 mm I.D. 5 µm, column (00B-4435-B0, Phenomenex). Quantification was performed using selected reaction monitoring for the transitions m/z 739.5–>339.3 (DCV) and 747.5–>339.3 (isotope-labelled internal standard for DCV). The LLOQ was set to 1.64 ng/mL for DCV. A total of 9 quality control samples (3×low, 3×mid and 3×high concentration) were analysed within each batch of clinical samples (96-well plate), resulting in an accuracy of 2.46–2.62% RSE for DCV.
# Maximum concentration (Cmax) and time to reach maximum concentration (tmax) were derived directly from the observed drug concentrations. The software’s automatic slope calculator was used to derive the elimination rate (λ) (adjusted R2 value with uniform weighting) and terminal elimination half-life (t1/2). The drug exposure measured as area under the concentration-time curve (AUC) was calculated for each drug using the trapezoidal method. Linear interpolation was used for acceding concentrations and log-linear interpolation for descending concentrations. For the individual analysis, the linear method was used for all measurements due to accumulation between the day 0 and day 28 measurements. […]
# [2] = Plasma drug exposure, individual non-compartmental analysis (days 0 and 28 pooled); type: in vivo, human; set-up: AUC(0-t) / AUClast: concentration or dose not given beside the values; conditions: median (5th-95th percentile); for AUC(0-t): human
# Description: as §1, §2
# In the second analysis, data from days 0 and 28 were pooled for each individual. […] The mean value of drug concentrations was used if patients had two or more samples taken at the same time point. These derived individual drug exposures were used to evaluate the relationship between drug exposure and therapeutic outcome. It was assumed that the participants had no drug concentrations at time 0. In this analysis, the first measurement below LLOQ in a series of LLOQ samples was imputed as LLOQ/2 and the later measurements were ignored. In both approaches, SOF samples taken at ≥24 hr post-dose were excluded. […] In addition, outcome variables and the relationship between outcome variables and drug exposure were evaluated. Additional detail of the PK/PD analysis is provided in Appendix 1.
# Maximum concentration (Cmax) and time to reach maximum concentration (tmax) were derived directly from the observed drug concentrations. The software’s automatic slope calculator was used to derive the elimination rate (λ) (adjusted R2 value with uniform weighting) and terminal elimination half-life (t1/2). The drug exposure measured as area under the concentration-time curve (AUC) was calculated for each drug using the trapezoidal method. Linear interpolation was used for acceding concentrations and log-linear interpolation for descending concentrations. For the individual analysis, the linear method was used for all measurements due to accumulation between the day 0 and day 28 measurements. Both the AUC to the last time point (AUClast, 8 hours for SOF and 24 hours for GS-331007 and DCV) and AUC to infinity (AUCinf) were calculated.
# Two different sampling schedules were used to collect pharmacokinetic samples on day 0 and day 28, resulting in an overlapping sampling profile overall. Therefore, data collected within an individual on a specific day was not dense enough to justify a non-compartment analysis. […] Two separate pharmacokinetic analyses were carried out. A naïve-pooled analysis was performed separately conducted on day 0 and 28 data. […] Therefore, a second analysis was performed in which the data from day 0 and 28 were pooled for each individual. […] However, the individual analysis should still generate median exposure values for each patient, which can be linked with treatment outcome. Another drawback is that no pre-dose samples were collected.
# [3] = cited from earlier work; for dose proportionality of AUC: dose range of 200–1200 mg, ref Smolders et al., 2019
# [4] = individual analysis, all patients (n=37)
compound,measurement,setting,value
"COC(=O)N[C@H](C(=O)N1CCC[C@H]1c1nc(-c2ccc(-c3ccc(-c4c[nH]c([C@@H]5CCCN5C(=O)[C@@H](NC(=O)OC)C(C)C)n4)cc3)cc2)c[nH]1)C(C)C [Daclatasvir, daclatasvir]",drug accumulation,[1],Drug accumulation was observed
same,Cmax,"[1]; human, oral, Day 28, plasma, read-out: Cmax",1110 ng/mL
same,AUC(0-t),"[1]; human, plasma, oral, Day 0",11400 ng·h/mL
same,half-life,"[1]; human, plasma, oral, Day 28",8.18 h
same,AUC(0-t),"[1]; human, plasma, oral, Day 28",12400 ng·h/mL
same,half-life,"[1]; human, plasma, oral, Day 0",7.31 h
same,tmax,"[1]; human, plasma, oral, Day 0, read-out: tmax",3 h
same,AUC(0-inf),"[1]; human, plasma, Day 0",12800 ng·h/mL
same,AUC(0-inf),"[1]; human, plasma, Day 28",14400 ng·h/mL
same,Cmax,"[1]; human, Day 0, plasma, oral SOF 400 mg + DCV 60 mg, read-out: Cmax",1170 ng/mL
same,AUC(0-t),"[2]; plasma, oral, 4-week cures (n=15), read-out: Median AUClast",13000 ng·h/mL
same,AUC(0-t),"[2]; plasma, oral, 4-week failures (n=8), read-out: Median AUClast",13200 ng·h/mL
same,AUC(0-t),"[2]; plasma, oral, 8-week cures (n=14), read-out: Median AUClast",14200 ng·h/mL
same,AUC(0-t),"[2]; plasma, oral, individual analysis, all patients (n=37), read-out: AUClast",9770 ng·h/mL
C[C@@]1(F)[C@H](O)[C@@H](CO)O[C@H]1n1ccc(=O)[nH]c1=O [GS-331007],"t1/2, terminal elimination half-life",[1]; Day 0,9.20 h
same,tmax,[1]; Day 0,3.00 h
same,Cmax,"[1]; Day 0, plasma, oral SOF 400 mg + DCV 60 mg",988 ng/mL
same,AUCINF,[1]; Day 0,"12,700 h×ng/mL"
same,AUClast,[1]; Day 0,"10,500 h×ng/mL"
same,"t1/2, terminal elimination half-life",[1]; Day 28,12.4 h
same,tmax,[1]; Day 28,4.00 h
same,Cmax,"[1]; Day 28, plasma","1,230 ng/mL"
same,AUCINF,[1]; Day 28,"20,400 h×ng/mL"
same,AUClast,[1]; Day 28,"14,600 h×ng/mL"
same,drug accumulation,[1],Drug accumulation was observed
same,Median AUClast,[2]; 4-week cures (n=15),"11,700 (8420–14,100) h×ng/ml"
same,Median AUClast,[2]; 4-week failures (n=8),"15,100 (9240–19,700) h×ng/ml"
same,Median AUClast,[2]; 8-week cures (n=14),"14,000 (10,200–17,400) h×ng/ml"
same,AUClast,[2]; [4],"3,430 (2,200-4,720) h×ng/mL"
same,dose proportionality of AUC,[3],near dose proportional
"CC(C)OC(=O)[C@H](C)N[P@](=O)(OC[C@H]1O[C@@H](n2ccc(=O)[nH]c2=O)[C@](C)(F)[C@@H]1O)Oc1ccccc1 [Sofosbuvir, sofosbuvir]",tmax,[1]; Day 0,1.00 h
same,half-life,"[1]; human, in vivo, Day 0",0.67 h
same,AUC(0-t),"[1]; human, in vivo, Day 0",1550 ng·h/mL
same,half-life,"[1]; human, in vivo, Day 28",0.65 h
same,AUC(0-t),"[1]; human, in vivo, Day 28",1600 ng·h/mL
same,AUC(0-inf),"[1]; human, in vivo, Day 0",1550 ng·h/mL
same,AUC(0-inf),"[1]; human, in vivo, Day 28",1600 ng·h/mL
same,Cmax,"[1]; human, in vivo, Day 0, plasma, oral SOF 400 mg + DCV 60 mg, read-out: Cmax",1320 ng/mL
same,Cmax,"[1]; human, in vivo, Day 28, plasma, read-out: Cmax",1070 ng/mL
same,AUC(0-t),"[2]; in vivo, 4-week cures (n=15), read-out: Median AUClast",2360 ng·h/mL
same,AUC(0-t),"[2]; in vivo, 4-week failures (n=8), read-out: Median AUClast",2220 ng·h/mL
same,AUC(0-t),"[2]; in vivo, 8-week cures (n=14), read-out: Median AUClast",2120 ng·h/mL
same,AUClast,[2]; [4],"1,140 (598-2,150) h×ng/mL"
same,dose proportionality of AUC,[3],near dose proportional
same,half-life,"[3]; ref de Kanter et al., 2014",less than 1 hr
